Experimental data published in patent publication US20230031406A1, “COMPOUNDS AND COMPOSITIONS FOR TREATING CONDITIONS ASSOCIATED WITH NLRP ACTIVITY” (Novartis AG, priority 2018, published 2023).

What follows are compounds tested on PMA-differentiated THP-1 cells (assay: IL-1β production in PMA-differentiated THP-1 cells stimulated with gramicidin (hTHP-1 assay containing 2% fetal bovine serum; Procedures 1 and 2)). Conditions: Homo sapiens, THP-1, Table B2; 2% fetal bovine serum; class symbols; read-out: hTHP-1 IC50.
Format: cell-based, human
In short: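 Human monocytic THP-1 cells, matured overnight with PMA at 20 ng/ml, are seeded in low-serum (2% FBS) RPMI. Test compounds, at final concentrations from 100 down to 0.0017 μM, precede gramicidin (5 μM, 2 h) by one hour. Released IL-1β is then determined by HTRF.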
Work on CC(C)(O)c1ccc(S(N)(=O)=NC(=O)Nc2c3c(nc4c2CCC4)CCC3)cc1 (single isomer, unassigned) [Compound 633b, (R) or (S)-N′-((1,2,3,5,6,7-hexahydrodicyclopenta [b,e]pyridin-8-yl)carbamoyl)-4-(2-hydroxypropan-2-yl)benzene-sulfonimidamide] yielded an IC50 of 5 to 30 µM.
For CC1(C)CCc2c1nc1c(c2NC(=O)N=S(N)(=O)c2cnn(C(F)F)c2)CCC1 (single isomer, unassigned) [Compound 637b, (S) or (R)-1-(Difluoromethyl)-N′-((3,3-dimethyl-1,2,3,5,6,7-hexahydrodicyclopenta [b,e]pyridin-8-yl)carbamoyl)-1H-pyrazole-4-sulfonimidamide], the IC50 was 1 to 5 µM.
NS(=O)(=NC(=O)Nc1c2c(nc3c1CCC31CC1)CCC2)c1cnn(C(F)F)c1 (single isomer, unassigned) [Compound 638a, (R) or (S)-1-(Difluoromethyl)-N′-((1′,5′,6′,7′-tetrahydro-2′H-spiro[cyclopropane-1,3′-dicyclopenta[b,e]pyridin]-8′-yl)carbamoyl)-1H-pyrazole-4-sulfonimidamide] was tested, and the IC50 was 1 to 5 µM.
C[C@@H]1CCc2c1nc1c(c2NC(=O)N=S(N)(=O)c2ccn(C)n2)CCC1 (single isomer, unassigned) [Compound 639b, (R) or (S)-1-Methyl-N′-(((R)-3-methyl-1,2,3,5,6,7-hexahydrodicyclopenta [b,e]pyridin-8-yl)carbamoyl)-1H-pyrazole-3-sulfonimidamide] showed an IC50 of 0.2 to 1 µM.
CC(O)c1nc(C(C)(C)O)sc1S(=N)(=O)NC(=O)Nc1c2c(nc3c1CCC3)CCC2 (single isomer, unassigned) [Compound 643a, (R, R/S) or (S, R/S)-N-((1,2,3,5,6,7-hexahydrodicyclopenta [b,e]pyridin-8-yl)carbamoyl)-4-(1-hydroxyethyl)-2-(2-hydroxypropan-2-yl) thiazole-5-sulfonimidamide] showed an IC50 of 5 to 30 µM.
Cc1c(C(C)C)nc2c(c1NC(=O)N=S(N)(=O)c1ccn(C(C)C)n1)CCC2 (single isomer, unassigned) [Compound 644b, (R) or (S)-1-Isopropyl-N′-((2-isopropyl-3-methyl-6,7-dihydro-5H-cyclopenta[b]pyridin-4-yl)carbamoyl)-1H-pyrazole-3-sulfonimidamide] showed an IC50 of 1 to 5 µM.
Cc1c(C(F)F)nc2c(c1NC(=O)N=S(N)(=O)c1cnc(C(C)(C)O)s1)CCC2 (single isomer, unassigned) [Compound 647a, (R) or (S)-N′-((2-(difluoromethyl)-3-methyl-6,7-dihydro-5H-cyclopenta[b]pyridin-4-yl)carbamoyl)-2-(2-hydroxypropan-2-yl)thiazole-5-sulfonimidamide] gave an IC50 of 1 to 5 µM.
Work on COC(C)(C)c1nc(CO)c(S(N)(=O)=NC(=O)Nc2c3c(nc4c2CCC4(C)C)CCC3)s1 (single isomer, unassigned) [Compound 648a, (R) or (S)-N′-((3,3-dimethyl-1,2,3,5,6,7-hexahydrodicyclopenta [b,e]pyridin-8-yl)carbamoyl)-4-(hydroxymethyl)-2-(2-methoxypropan-2-yl)thiazole-5-sulfonimidamide] yielded an IC50 of 0.2 to 1 µM.

Same assay, conditions: Homo sapiens, THP-1, Table B2; 2% fetal bovine serum; numeric bounds; read-out: hTHP-1 IC50
CC1(C)CCc2c1nc1c(c2NC(=O)N=S(N)(=O)c2cnn(C(F)F)c2)CCC1 (single isomer, unassigned) [Compound 637b, (S) or (R)-1-(Difluoromethyl)-N′-((3,3-dimethyl-1,2,3,5,6,7-hexahydrodicyclopenta [b,e]pyridin-8-yl)carbamoyl)-1H-pyrazole-4-sulfonimidamide] was tested, and the IC50 was greater than 30 µM.
NS(=O)(=NC(=O)Nc1c2c(nc3c1CCC31CC1)CCC2)c1cnn(C(F)F)c1 (single isomer, unassigned) [Compound 638b, (S) or (R)-1-(Difluoromethyl)-N′-((1′,5′,6′,7′-tetrahydro-2′H-spiro[cyclopropane-1,3′-dicyclopenta[b,e]pyridin]-8′-yl)carbamoyl)-1H-pyrazole-4-sulfonimidamide] was tested, and the IC50 was greater than 30 µM.
In the case of C[C@@H]1CCc2c1nc1c(c2NC(=O)N=S(N)(=O)c2ccn(C)n2)CCC1 (single isomer, unassigned) [Compound 639a, (S) or (R)-1-Methyl-N′-(((R)-3-methyl-1,2,3,5,6,7-hexahydrodicyclopenta [b,e]pyridin-8-yl)carbamoyl)-1H-pyrazole-3-sulfonimidamide], the IC50 is reported as greater than 30 µM.
Cc1c(C(C)C)nc2c(c1NC(=O)N=S(N)(=O)c1ccn(C(C)C)n1)CCC2 (single isomer, unassigned) [Compound 644a, (S) or (R)-1-Isopropyl-N′-((2-isopropyl-3-methyl-6,7-dihydro-5H-cyclopenta[b]pyridin-4-yl)carbamoyl)-1H-pyrazole-3-sulfonimidamide] was tested, and the IC50 was greater than 30 µM.
Cc1c(C(F)F)nc2c(c1NC(=O)N=S(N)(=O)c1cnc(C(C)(C)O)s1)CCC2 (single isomer, unassigned) [Compound 647b, (S) or (R)-N′-((2-(difluoromethyl)-3-methyl-6,7-dihydro-5H-cyclopenta[b]pyridin-4-yl)carbamoyl)-2-(2-hydroxypropan-2-yl)thiazole-5-sulfonimidamide] was tested, and the IC50 was greater than 30 µM.

Same assay, conditions: Table B2; 2% fetal bovine serum; class symbols; read-out: hTHP-1 IC50
Work on CCn1ccc(S(N)(=O)=NC(=O)Nc2c3c(nc4c2CC[C@H]4C)CCC3)n1 (single isomer, unassigned) [Compound 634a, (S) or (R)-1-Ethyl-N′-(((R)-3-methyl-1,2,3,5,6,7-hexahydrodicyclopenta [b,e]pyridin-8-yl)carbamoyl)-1H-pyrazole-3-sulfonimidamide] yielded an IC50 of 5 to 30 µM.
For CCn1ccc(S(N)(=O)=NC(=O)Nc2c3c(nc4c2CC[C@H]4C)CCC3)n1 (single isomer, unassigned) [Compound 634b, (R) or (S)-1-Ethyl-N′-(((R)-3-methyl-1,2,3,5,6,7-hexahydrodicyclopenta [b,e]pyridin-8-yl)carbamoyl)-1H-pyrazole-3-sulfonimidamide], the IC50 was 0.04 to 0.2 µM.
Work on C[C@@H]1CCc2c1nc1c(c2NC(=O)N=S(N)(=O)c2sc(CN(C)C)cc2F)CCC1 (single isomer, unassigned) [Compound 636a, (S) or (R)-5-((Dimethylamino)methyl)-3-fluoro-N′-(((R)-3-methyl-1,2,3,5,6,7-hexahydrodicyclopenta [b,e]pyridin-8-yl)carbamoyl) thiophene-2-sulfonimidamide] yielded an IC50 of 5 to 30 µM.
For C[C@@H]1CCc2c1nc1c(c2NC(=O)N=S(N)(=O)c2sc(CN(C)C)cc2F)CCC1 (single isomer, unassigned) [Compound 636b, (R) or (S)-5-((Dimethylamino)methyl)-3-fluoro-N′-(((R)-3-methyl-1,2,3,5,6,7-hexahydrodicyclopenta [b,e]pyridin-8-yl)carbamoyl) thiophene-2-sulfonimidamide], the IC50 was 0.04 to 0.2 µM.
Work on CC1(C)CCc2c1nc1c(c2NC(=O)N=S(N)(=O)c2sc(C(C)(O)CO)cc2F)CCC1 (single isomer, unassigned) [Compound 640a, (R, R) and (S, R) or (R, S) and (S, S)-5-(1,2-Dihydroxypropan-2-yl)-N′-((3,3-dimethyl-1,2,3,5,6,7-hexahydrodicyclopenta [b,e]pyridin-8-yl)carbamoyl)-3-fluorotliophene-2-sulfonimidamide] yielded an IC50 of 0.008 to 0.04 µM.
Work on CC1(C)CCc2c1nc1c(c2NC(=O)N=S(N)(=O)c2sc(C(C)(O)CO)cc2F)CCC1 (single isomer, unassigned) [Compound 640b, (S, R) and (R, R) or (R, S) and (S, S)-5-(1,2-Dihydroxypropan-2-yl)-N′-((3,3-dimethyl-1,2,3,5,6,7-hexahydrodicyclopenta [b,e]pyridin-8-yl)carbamoyl)-3-fluorotliophene-2-sulfonimidamide] yielded an IC50 of 0.04 to 0.2 µM.
Compound CC1(C)CCc2c1nc1c(c2NC(=O)N=S(N)(=O)c2sc(C(C)(O)CO)cc2F)CCC1 (single isomer, unassigned) [Compound 640c, (R, S) and (S, S) or (S, R) and (R, R)-5-(1,2-Dihydroxypropan-2-yl)-N′-((3,3-dimethyl-1,2,3,5,6,7-hexahydrodicyclopenta [b,e]pyridin-8-yl)carbamoyl)-3-fluorotliophene-2-sulfonimidamide] has an IC50 of 1 to 5 µM.
In the case of CC(C)(O)c1sc(S(N)(=O)=NC(=O)Nc2c3c(nc4c2CCC4(C)C)CCC3)nc1CO (single isomer, unassigned) [Compound 642a, (S) or (R)-N′-((3,3-dimethyl-1,2,3,5,6,7-hexahydrodicyclopenta [b,e]pyridin-8-yl)carbamoyl)-4-(hydroxymethyl)-5-(2-hydroxypropan-2-yl)thiazole-2-sulfonimidamide], the IC50 is reported as 5 to 30 µM.
For CC(C)(O)c1sc(S(N)(=O)=NC(=O)Nc2c3c(nc4c2CCC4(C)C)CCC3)nc1CO (single isomer, unassigned) [Compound 642b, (R) or (S)-N′-((3,3-dimethyl-1,2,3,5,6,7-hexahydrodicyclopenta [b,e]pyridin-8-yl)carbamoyl)-4-(hydroxymethyl)-5-(2-hydroxypropan-2-yl)thiazole-2-sulfonimidamide], the IC50 was 0.04 to 0.2 µM.
CC(O)c1nc(C(C)(C)O)sc1S(=N)(=O)NC(=O)Nc1c2c(nc3c1CCC3)CCC2 (single isomer, unassigned) [Compound 643b, (S, R/S) or (R, R/S)-N-((1,2,3,5,6,7-hexahydrodicyclopenta [b,e]pyridin-8-yl)carbamoyl)-4-(1-hydroxyethyl)-2-(2-hydroxypropan-2-yl) thiazole-5-sulfonimidamide] showed an IC50 of 5 to 30 µM.
For Cc1c(C(C)C)nc2c(c1NC(=O)N=S(N)(=O)c1sc(C(C)(C)O)cc1F)CCC2 (single isomer, unassigned) [Compound 645a, (R) or (S)-3-Fluoro-5-(2-hydroxypropan-2-yl)-N′-((2-isopropyl-3-methyl-6,7-dihydro-5H-cyclopenta[b]pyridin-4-yl)carbamoyl) thiophene-2-sulfonimidamide], the IC50 was 0.04 to 0.2 µM.
With Cc1c(C(C)C)nc2c(c1NC(=O)N=S(N)(=O)c1sc(C(C)(C)O)cc1F)CCC2 (single isomer, unassigned) [Compound 645b, (S) or (R)-3-Fluoro-5-(2-hydroxypropan-2-yl)-N′-((2-isopropyl-3-methyl-6,7-dihydro-5H-cyclopenta[b]pyridin-4-yl)carbamoyl) thiophene-2-sulfonimidamide] the IC50 was 5 to 30 µM.
